Laboratory results taken from US5635608A, “α-carboxy caged compounds” (Molecular Probes, Inc., priority 1994, dated 1997).

Test system: whole neuron
Assay: Release of a caged neurotransmitter in situ: whole-cell current of a neuron before and on photolysis
Format: cell-based
Description: FIG. 2: The photolysis of a caged probe in situ, as described in Example 15.
A whole neuron is bathed in a solution of γ-(α-carboxy o-nitrobenzyl)-caged glutamic acid (3), as described in Example 1. The whole-cell current is then monitored as the neuron is photolyrically illuminated at 343 nm. […] This indicates both that the uncaging of a CNB-caged probe is extremely rapid, but also verifies that the caged neurotransmitter is inert in situ until uncaged.

N[C@@H](CCC(=O)OC(C(=O)O)c1ccccc1[N+](=O)[O-])C(=O)O (stereo partly drawn) [Compound 3, L-Glutamic Acid, γ-(α-carboxy-o-nitrobenzyl) ester]
whole-cell current on photolytic illumination (illumination at 343 nm, begun at time=0 ms, FIG. 2): increases rapidly
activity of the caged neurotransmitter in situ before uncaging (whole-cell current) (whole neuron bathed in solution of caged glutamic acid, before illumination): inert
